Reference: a melting point compilation (Tetko et al.; mined from patent text by program, amines drawn as free bases though some values may be those of a salt)

Compound | melting point
COc1cc(CNc2n[nH]c3ncnc(Nc4cccc(Cl)c4)c23)cc(OC)c1OC | 240 to 245 °C
Nc1ccc(C(=O)OC2CCN(Cc3ccccc3)CC2)cn1 | 135 to 136 °C
C1=C(c2cccs2)CCN(CCCSc2ccncc2)C1 | 86 to 87 °C
Cn1c(-c2cc(C(C)(C)C)c(O)c(C(C)(C)C)c2)cnc1S | 288 to 289 °C
CCOC(=O)c1oc2cc(SC(=O)N(C)C)ccc2c1C | 112 to 114 °C
Cc1c(NCCCN2CCN(c3ccccc3O)CC2)n(C)c(=O)n(C)c1=O | 203 to 205 °C
O=[N+]([O-])c1c(C(F)(F)F)cc(OCc2ccccc2)cc1C(F)(F)F | 141 to 143 °C
CCOC(=O)/C=C(\c1ccc(C)cc1)c1ccc(OC)c(OC)c1 | 69 to 70 °C
CCCOC(=N)c1sc2ccccc2c1O | 185 °C
Cc1cc(Br)cnc1CCCCNc1ncc(Cc2ccn(Cc3ccccc3)c(=O)c2)c(=O)[nH]1 | 140 to 144 °C
COc1ccc2c(c1)C(CC(=O)O)=C(C)C2=Cc1ccc(S(C)=O)cc1 (stereo not drawn) | 200 to 204 °C
CCOC(=O)C1=Cc2cc(Cl)c(Oc3ccc(CC)cc3)cc2OC1C(F)(F)F (stereo not drawn) | 109 to 110 °C
Cc1cc(N)c([N+](=O)[O-])cc1NCC(O)CO (stereo not drawn) | 150 °C
CC1(C)CCC(C)(C)c2cc(-c3nc4ccc(C(=O)O)cc4s3)ccc21 | 292 to 293 °C
Cc1ccc(C)c(OCc2ccccc2CCl)c1 | 46.5 to 48.5 °C
CN1C(=O)CN=C(C2CCCCC2)c2ccccc21 | 98 to 100 °C
O=C(NCCCC(=O)N1CCCC1=O)c1cc(Br)no1 | 141 to 142 °C
O=C(CNC1=Nc2cccc3cccc1c23)NCCCn1ccnc1 | 145 to 146 °C
CC(C)(C)c1ccnc(C(=O)c2[nH]c3ccc(Cl)cc3c2CC(=O)O)c1 | 209 to 211 °C
COc1ccc(C(C)(O)Cc2ccncc2)cc1OC1CCCC1 (stereo not drawn) | 99 to 101 °C
COc1ccc(Cc2cnc(NCCc3ccccc3Cl)nc2N2CCc3cc(OC)c(OC)cc3C2)cc1OC | 140 to 141 °C
C[C@H](CO)Nc1nc(SCc2cccc(F)c2F)nc2c1=NC(=O)C(=O)N=2 | 243 to 246 °C
Cc1csc2c(Cl)c(Cl)c(O)cc12 | 137 to 139 °C
COC(=NC(=O)N(C)C)NC(=O)NC(C)(C)C | 96 to 98 °C
C#CC1(O)C(CO)OC(n2ccc(=O)[nH]c2=O)C1O (stereo not drawn) | 226 to 228 °C
Cc1nc(-c2ccccc2)n[nH]c1=O | 75 to 76 °C

Compound | melting point
O=S1(=O)NCN(CCCCF)c2cc(Cl)c(Cl)cc21 | 141 to 143 °C
CO[C@@H]1[C@@H](OC)[C@H](C)O[C@@H](OC(=O)Nc2ccc(-c3ncn(-c4ccc(OC(F)(F)F)cc4)n3)cc2)[C@@H]1OC | 186 to 188 °C
O=C(Cc1ccccc1)Nc1n[nH]c(-c2ccc(F)cc2)c1-c1ccncc1 | 289 to 290 °C
Cc1cn(-c2ccc(NC(=O)c3ccc(C)c(C#Cc4cnc(NC5CC5)nc4)c3)cc2C(F)(F)F)cn1 | 131 to 133 °C
N#CC1OC(=O)c2c(F)ccc(F)c21 (stereo not drawn) | 87 to 89 °C
CC(C)(O)C(C)(O)Cc1ccccc1 (stereo not drawn) | 72 to 74 °C
CC(C)(CC(C)(c1ccc(O)cc1)c1ccc(O)cc1)c1ccc(O)cc1 | 150 to 151 °C
Cc1cc2c(cc1C)OC(CCN1CCC3(CC1)CNC(=O)CO3)CO2 (stereo not drawn) | 164 to 166 °C
CCN(CC)CCNC(=O)c1cc(Cl)c(NS(=O)(=O)c2ccc3ccccc3c2)cc1OC | 148 to 149 °C
COCC(C)Nc1cc2c(=O)n(NS(C)(=O)=O)c(=O)[nH]c2cc1[N+](=O)[O-] (stereo not drawn) | 103 to 111 °C
CCCCCCCCC(=O)NC1CC(C)(C)N(CC#N)C(C)(C)C1 | 68 °C
CC1(C)CCc2c(N3CCOCC3)nc3sc4c(NCc5ccccn5)ncnc4c3c2C1 | 218 °C
CCSc1cc(C)nc(SCC)c1NC(=O)CCCCCCCSc1nc2c(C)c(Cl)cc(C(C)C)c2o1 | 82 to 84 °C
O=c1nc(-c2c(F)cccc2F)oc(=O)n1-c1ccc(Cl)c(Cl)c1 | 196 to 197 °C
O=C(O)c1ccccc1N1CCN(CC(O)COc2cccc3[nH]ccc23)CC1 (stereo not drawn) | 163 to 165 °C
O=C1Nc2cc(F)ccc2Nc2ccsc21 | 225 to 230 °C
COc1ccc(NC(=O)CN2CCC(Cc3ccc(F)cc3)CC2)cc1 | 121 to 124 °C
CC(=O)NC(=CBr)C(=O)OC(C)(C)C | 106 to 107 °C
Cc1nn(CC(F)(F)F)c(C(N)=O)c1[N+](=O)[O-] | 205 to 207 °C
CC(C)CNC(=O)NCCCl | 79.5 °C
OCC1(CO)CC=CC1 | 168 to 170 °C
CCOC(=O)c1c(Cl)nc2cc(OC)c(OC)cc2c1-c1ccc(OC)c(OC)c1 | 168 to 169 °C
C#CCN(Cc1ccc2nc(NC(=O)C(C)(C)C)[nH]c(=O)c2c1)c1ccc(C#N)cc1 | 183 to 186 °C
CCCCCCCCCCCCCCCCCCN(C)CC(O)COC(c1ccccc1)(c1ccccc1)c1ccccc1 (stereo not drawn) | 45 °C
CCCc1c(OCc2cccc(OCc3ccc4ccccc4n3)c2)ccc2c(=O)cc(C(=O)O)oc12 | 218 to 222 °C
CCNC(C)CCNC(CC(=O)O)C(=O)OC1CCCCC1 (stereo not drawn) | 124 to 128 °C

Compound | melting point
CC1CC(=O)NN=C1c1ccc(NC(=O)OC2CCC2)cc1 (stereo not drawn) | 245 to 246 °C
Cc1ccsc1C(=O)Nc1ccc(I)cc1 | 141 to 142 °C
Cc1ccc(F)cc1C(=O)Nc1ccc(C(=O)N2CCc3cn[nH]c3-c3sccc32)c(Cl)c1 | 310 to 312 °C
C=CCOC(=O)Nc1nsc(N)n1 | 159 to 161 °C
CCCCCCCCCCCCCCCCCCOc1ccc(C(=O)O)c(OCCCOc2ccc(OCc3ccccc3)cc2)c1 | 102 to 104 °C
CCS(=O)(=O)CCC(=O)NNC(=O)N1Cc2ccccc2Oc2ccc(Cl)cc21 | 181 to 184 °C
CCOC(=O)/C=C/c1cn(-c2ccccc2)nc1OCc1ccccc1 | 105 to 106 °C
CC(=O)c1nc(C)n2c1CN=C(c1ccccc1Cl)c1cc(Cl)ccc1-2 | 234 to 236 °C
CNC(=S)NCCCc1ncco1 | 43 to 45 °C
CN(CC(=O)C(Cc1ccccc1)NC(=O)c1ccccc1)C(=O)N1CCCC1C(=O)O (stereo not drawn) | 60 to 82 °C
O=C(O)CCC(Cc1ccc(Cl)cc1)(C(=O)C=Cc1ccc(Cl)cc1)c1ccccc1 (stereo not drawn) | 176 to 178 °C
Clc1nccnc1NCCOc1ccccc1 | 51 to 53 °C
N#Cc1cnc2cc(/C=C/c3ccncc3)sc2c1Nc1ccc(Oc2ccccc2)cc1 | 240 to 241 °C
COc1ccc2c(-c3c(F)cccc3F)noc2c1Cl | 175 to 179 °C
NS(=O)(=O)c1cc(C(=O)O)cc(N2CCCC2)c1Oc1ccccc1 | 214 to 217 °C
Cc1ccccc1N=c1scc(-c2ccc(Cl)c(S(=O)(=O)N(C)C)c2)n1C | 158 to 162 °C
O=c1c(Cl)nc2ccc(C(F)(F)F)cc2n1OCc1ccccc1 | 148 to 150 °C
O=S1(=O)c2cccc3cccc(c23)N1CCCN1CCC(n2c(O)nc3ccccc32)CC1 | 253 °C
C#CCN(c1ccc(C(=O)O)cc1)C1CCc2cc3nc(C)[nH]c(=O)c3cc21 (racemic) | 264 °C
Cn1cc(-c2ccc3c(c2)C(C)(C)CCC3(C)C)cc1C=CC(=O)O | 165 to 166 °C
CC(Oc1ccc(S(C)(=O)=O)cc1)c1ccnc2ncnn12 (stereo not drawn) | 163 to 164 °C
CN1Cc2c(Br)cc3c(c2C1)NC(=O)C3=O | > 300 °C
O=c1ccsn1CNc1ccc(Cl)c(Cl)c1 | 120 to 122 °C
COc1cc2c(cc1OC)N(C)C(=O)CN=C2c1cccc(C=O)c1 | 175 to 178 °C
CC(=O)Nc1c(OC(C)=O)cc(C)cc1[N+](=O)[O-] | 163 to 165 °C
CC(=O)Nc1cc(C)c2c(n1)N(C1CC1)c1ncccc1C(=O)N2C(C)=O | 211 to 213 °C

Compound | melting point
CCn1c(=O)c(C#N)c(O)c2ccc(C)nc21 | 274 to 276 °C
O=c1cc(CCO)c2ccccc2[nH]1 | 213 to 215 °C
Cc1c(CNS(=O)(=O)c2ccc(C(F)(F)F)cc2)nn(-c2ccc(Cl)cc2Cl)c1-c1ccc(Br)cc1 | 195 °C
FC(F)(F)c1ccc(-c2cc(Cl)ncn2)cc1 | 227 to 230 °C
O=[N+]([O-])c1ccc(C(Cl)(Cl)Br)cc1 | 51.3 to 52.9 °C
O=S1(=O)c2ccc(F)cc2Oc2cc(OCC(F)(F)F)ccc21 | 160 to 161 °C
CC(C)(C)OC(=O)Nc1ccsc1CC(=O)O | 70 to 72 °C
CCNn1cc(C(=O)O)c(=O)c2cc(F)c(N3CCNCC3)cc21 | 289 to 291 °C
O=CN(O)C(CCCO)CS(=O)(=O)c1ccccc1Oc1ccc(Cl)cc1 (stereo not drawn) | 127 to 129 °C
CCC(=O)NN(C(C)=O)[C@@H]1c2cc(C#N)ccc2OC(C)(C)[C@H]1O (relative stereo) | 201 to 203 °C
O=C1C2CCC(N2)C(=O)N1Cc1ccccc1 | 72 °C
CNC(=O)c1ccccc1Nc1nc(Nc2ccc3c(c2)COCCN3C)ncc1Cl | 216 to 217 °C
Cn1cc(-c2ccc3nc(NC(=O)c4ccc(C(C)(C)C)cc4)cn3n2)cn1 | 245 to 246 °C
CC(Cl)C(CC(=O)c1ccccc1)[N+](=O)[O-] (stereo not drawn) | 115 to 117 °C
CCCCCCS(=O)(=O)Cc1ccc(C(C)(C)NC(=O)OC)cc1 | 104 to 105 °C
N#CC1NC(CO)C(O)C(O)C1O (stereo not drawn) | 143 °C
COc1c(C2CCN(CCCCNC(=O)c3oc(-c4ccc(C#N)cc4)nc3CO)CC2)ccc2c1CCCC2 | 160 to 162 °C
COc1ccc(N2CCN(c3ccc([N+](=O)[O-])nc3)CC2)cc1 | 186 to 188 °C
CCCNC(=O)c1cncs1 | 86 °C
CC(CC1=C(c2ccc(O)cc2)CCCNC1=O)N1CCCCC1 (stereo not drawn) | 178 to 181 °C
O=C(O)c1ccc(CC2(Cc3ccc(C(=O)O)cc3)C(=O)N=C3C=CC=CN32)cc1 | > 300 °C
S=C(Cc1cccnc1)N1CCOCC1 | 158 to 160 °C
CNC(=S)CC(=S)N(c1c(C)cccc1C)C(C)C(=O)OC (stereo not drawn) | 119 to 121 °C
COc1ccc(-c2cc(N3CCN(c4ccccc4)CC3)nc(C)c2-c2ccc(OC)cc2)cc1 | 173 to 174 °C
Nc1cc(=O)nc(Nc2ccccc2)n1-c1ccc(Br)cc1 | 211 to 213 °C
